Patent US5612329A (priority 1995, dated 1997)

Legend:
[1] = tested on: L1210 murine leukemia; experiment: In vivo testing in mice bearing L1210 leukemia; design: species or system female CD2 F1 mice; settings: for LD20: footnote e
Text: Virus-free, adult female CD2 F1 mice were obtained from the Animal Genetics and Production Branch of the National Cancer Institute. To minimize exogenous infection, mice were housed in microisolator caging and handled in accordance with the NIH Guide for the care and use of laboratory animals (NIH No. 85-23, 1985). The mice were randomized to groups of 5 mice per group, except titration groups which consisted of 10 mice per group, and the untreated control group which consisted of 20 mice.
On day 0, the mice were inoculated intraperitoneally with 1.0×10^5 L1210 mouse leukemia cells/mouse for the treatment and control groups. The titration groups received 1.0×10^4 to 1.0×10^6 L1210 cells/mouse.
Dosing solutions were freshly prepared just prior to treatment by dissolving 1,12-diaziridinyl-4,9-diazadodecane in 25 mM sodium phosphate buffer (pH 7.4), giving concentrations of 0.18-0.6 mg/ml.
Beginning on day 1, dosing solutions were administered intravenously by tail vein at 0.01 ml/g of body weight. The doses of 1,12-diaziridinyl-4,9-diazadodecane were 6.0, 4.0, 2.7, and 1.8 mg/kg. The dosing schedule was: a single dose on day 1; 3 doses every four days beginning on day 1; 2 doses every seven days beginning on day 1; or 2 doses on days 1 and 2.
Percent increase in lifespan was calculated using the formula, (T-C/C)·100, where T is the median day of death for the various treatment groups, and C is the median day of death for the control group.
The net log cell kill is an estimate of the number of cells that are killed by the drug at each specific dose and schedule, and was calculated by the formula, ((T-C)-Duration of Treatment)·0.3/Tumor Doubling Time.

[2] = tested on: SW-620 cells; experiment: In vitro cytotoxicity / cell growth inhibition, colon cancer; format: cell-based; settings: Homo sapiens; SW-620, colon cancer, 48 hr; read-out: log10 G150 (converted)
Description: (§1) The anti-proliferative activities of the aziridinylpolyamines obtained in Synthesis Examples 1-4 were assessed by determining log10 G150 values against human cancer cell lines using the screening strategy described by Boyd et al, Drug Devel. Res. 34:91-109 (1995).
(§2) More specifically, the compounds were tested at a minimum of five concentrations at 10-fold dilutions using a 48 hr continuous exposure protocol. Each cell line shown in Table 1 below was inoculated onto microtiter plates. After a pre-incubation period of 24-48 hr at 37° C., the test compounds were added, and the culture was incubated for an additional 48 hr at 37° C. Cell viability or cell growth end-point determinations were performed by fixation of the cells, followed by staining with sulforhodamine B (Monks et al, J. Natl. Cancer Inst., 83:757-766 (1991)).

[3] = tested on: HCC-2998 cells; experiment: as above; format: cell-based; settings: Homo sapiens; HCC-2998, colon cancer, 48 hr; read-out: log10 G150 (converted)
Description: as §1, §2

[4] = tested on: HCT-116 cells; experiment: as above; format: cell-based; settings: Homo sapiens; HCT-116, colon cancer, 48 hr; read-out: log10 G150 (converted)
Description: as §1, §2

[5] = tested on: HCT-15 cells; experiment: as above; format: cell-based; settings: Homo sapiens; HCT-15, colon cancer, 48 hr; read-out: log10 G150 (converted)
Description: as §1, §2

[6] = tested on: HT29 cells; experiment: as above; format: cell-based; settings: Homo sapiens, HT-29, 48 hr, read-out: log10 G150 (converted)
Description: as §1, §2

[7] = tested on: KM12 cells; experiment: as above; format: cell-based; settings: Homo sapiens, 48 hr, read-out: log10 G150 (converted)
Description: as §1, §2

[8] = tested on: COLO 205 cells; experiment: as above; format: cell-based; settings: Homo sapiens; COLO 205, colon cancer, 48 hr; read-out: log10 G150 (converted)
Description: as §1, §2

C(CCNCCCN1CC1)CNCCCN1CC1 [Synthesis Example 1, 1,12-Diaziridinyl-4,9-diazadodecane]
Net log cell kill (NLCK) ([1]; 1.8 mg/kg i.v. on day 1): 4 | Percent increase in life span (% ILS) ([1]; 1.8 mg/kg i.v. on day 1): 57% | Survival (median day of death) ([1]; 1.8 mg/kg i.v. on day 1): 11 days | Net log cell kill (NLCK) ([1]; 1.8 mg/kg i.v. on days 1, 2): 6 | Percent increase in life span (% ILS) ([1]; 1.8 mg/kg i.v. on days 1, 2): 100% | Survival (median day of death) ([1]; 1.8 mg/kg i.v. on days 1, 2): 14 days | Net log cell kill (NLCK) ([1]; 1.8 mg/kg i.v. on days 1, 5, 9): 2 | Percent increase in life span (% ILS) ([1]; 1.8 mg/kg i.v. on days 1, 5, 9): 143% | Survival (median day of death) ([1]; 1.8 mg/kg i.v. on days 1, 5, 9): 17 days | Net log cell kill (NLCK) ([1]; 1.8 mg/kg i.v. on days 1, 8): -1 | Percent increase in life span (% ILS) ([1]; 1.8 mg/kg i.v. on days 1, 8): 86% | Survival (median day of death) ([1]; 1.8 mg/kg i.v. on days 1, 8): 13 days | Net log cell kill (NLCK) ([1]; 2.7 mg/kg i.v. on day 1): 3 | Percent increase in life span (% ILS) ([1]; 2.7 mg/kg i.v. on day 1): 42% | Survival (median day of death) ([1]; 2.7 mg/kg i.v. on day 1): 10 days | Net log cell kill (NLCK) ([1]; 2.7 mg/kg i.v. on days 1, 2): 6 | Percent increase in life span (% ILS) ([1]; 2.7 mg/kg i.v. on days 1, 2): 100% | Survival (median day of death) ([1]; 2.7 mg/kg i.v. on days 1, 2): 14 days | Net log cell kill (NLCK) ([1]; 2.7 mg/kg i.v. on days 1, 5, 9): 4 | Percent increase in life span (% ILS) ([1]; 2.7 mg/kg i.v. on days 1, 5, 9): 171% | Survival (median day of death) ([1]; 2.7 mg/kg i.v. on days 1, 5, 9): 19 days | Net log cell kill (NLCK) ([1]; 2.7 mg/kg i.v. on days 1, 8): 2 | Percent increase in life span (% ILS) ([1]; 2.7 mg/kg i.v. on days 1, 8): 129% | Survival (median day of death) ([1]; 2.7 mg/kg i.v. on days 1, 8): 16 days | Net log cell kill (NLCK) ([1]; 4.0 mg/kg i.v. on day 1): 4 | Percent increase in life span (% ILS) ([1]; 4.0 mg/kg i.v. on day 1): 57% | Survival (median day of death) ([1]; 4.0 mg/kg i.v. on day 1): 11 days | Net log cell kill (NLCK) ([1]; 4.0 mg/kg i.v. on days 1, 2): -3 | Percent increase in life span (% ILS) ([1]; 4.0 mg/kg i.v. on days 1, 2): -29% | Survival (median day of death) ([1]; 4.0 mg/kg i.v. on days 1, 2): 5 days | Net log cell kill (NLCK) ([1]; 4.0 mg/kg i.v. on days 1, 5, 9): -7 | Percent increase in life span (% ILS) ([1]; 4.0 mg/kg i.v. on days 1, 5, 9): 14% | Survival (median day of death) ([1]; 4.0 mg/kg i.v. on days 1, 5, 9): 8 days | Net log cell kill (NLCK) ([1]; 4.0 mg/kg i.v. on days 1, 8): 4 | Percent increase in life span (% ILS) ([1]; 4.0 mg/kg i.v. on days 1, 8): 157% | Survival (median day of death) ([1]; 4.0 mg/kg i.v. on days 1, 8): 18 days | Net log cell kill (NLCK) ([1]; 6.0 mg/kg i.v. on day 1): -1 | Percent increase in life span (% ILS) ([1]; 6.0 mg/kg i.v. on day 1): -14% | Survival (median day of death) ([1]; 6.0 mg/kg i.v. on day 1): 6 days | LD20 ([1]; i.v. on day 1): 4.0 mg/kg | LD20 ([1]; i.v. on days 1, 2): 2.7 mg/kg | LD100 ([1]; i.v. on days 1, 2, footnote f): 4.0 mg/kg | LD20 ([1]; i.v. on days 1, 5, 9): 4.0 mg/kg | LD20 ([1]; i.v. on days 1, 8): 4.0 mg/kg | increase in the life span ([1]; i.v., doses of less than 2.7 mg/kg, days 1, 5, and 9): significant increase in the life span | GI50 [2]: 2630 nM | GI50 [3]: 1820 nM | GI50 [4]: 1260 nM | GI50 [5]: 11500 nM | GI50 [6]: 3630 nM | GI50 [7]: 15500 nM | GI50 [8]: 407 nM
